Data taken from ChEMBL document CHEMBL5523667, “Blood-stage antimalarial activity, favourable metabolic stability and in vivo toxicity of novel piperazine linked 7-chloroquinoline-triazole conjugates” (Eur J Med Chem, 2024).
Calls of active or inactive are those of the source. The calls are words filed in the database; no cut-off is given here.

Tests used:
[1] = Toxicity in mouse assessed as cell death in spleen at 100 to 200 mg/kg measured after 7 days by hematoxylin and eosin staining based analysis; format: organism-based; conditions: in vivo, 168 h, dose 100-200 mg/kg, time 7 day
[2] = Toxicity in mouse assessed as cell apoptosis in kidney at 100 to 200 mg/kg measured after 7 days by hematoxylin and eosin staining based analysis; format: organism-based; conditions: in vivo, 168 h, dose 100-200 mg/kg, time 7 day
[3] = biological target: T1, Falcipain 2 (Plasmodium falciparum) (UniProt Q9N6S8); test: Inhibition of N-terminal 6His-tagged recombinant Plasmodium falciparum FP2 expressed in Escherichia coli M15 using Z-Phe-Arg-AMC as substrate at 5 uM measured after 30 mins by microplate reader analysis relative to control
T1 sequence (whole entry): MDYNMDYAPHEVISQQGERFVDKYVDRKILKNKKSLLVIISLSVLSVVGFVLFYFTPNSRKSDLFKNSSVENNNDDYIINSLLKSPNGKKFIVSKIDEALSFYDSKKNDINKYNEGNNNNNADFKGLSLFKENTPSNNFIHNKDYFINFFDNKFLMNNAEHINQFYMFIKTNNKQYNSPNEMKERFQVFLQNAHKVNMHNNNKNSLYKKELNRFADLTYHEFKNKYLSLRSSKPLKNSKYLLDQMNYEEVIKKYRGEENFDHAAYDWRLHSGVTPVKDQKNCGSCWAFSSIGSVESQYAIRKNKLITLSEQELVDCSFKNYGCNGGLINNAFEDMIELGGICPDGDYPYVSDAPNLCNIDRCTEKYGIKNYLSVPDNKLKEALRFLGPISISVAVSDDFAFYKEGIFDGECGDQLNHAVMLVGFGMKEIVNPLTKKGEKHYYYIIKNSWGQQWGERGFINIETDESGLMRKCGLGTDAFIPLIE

Plasmodium berghei [4] = test: Antimalarial activity against Plasmodium berghei ANKA infected in female BALB/c mouse assessed as reduction in parasitemia at 50 mg/kg, ip measured on day 4 post infection by Giemsa staining based light microscopy (Rvb >17 %); format: functional; design: scale not given: the % may be the effect or the level left
Plasmodium falciparum [5] = test: Resistance index, ratio of IC50 for antimalarial activity against chloroquine-resistant Plasmodium falciparum K1 to IC50 for antimalarial activity against chloroquine-sensitive Plasmodium falciparum NF54; format: functional
Plasmodium falciparum [6] = test: Antimalarial activity against synchronized-trophozoite stage chloroquine-sensitive Plasmodium falciparum 3D7 assessed as inhibition of parasite growth by measuring pyknotic appearance measured upto 60 hrs by Giemsa staining based light microscopic analysis; format: functional, organism-based
[7] = biological target: T1, Falcipain 2 (Plasmodium falciparum); test: Inhibition of N-terminal 6His-tagged recombinant Plasmodium falciparum FP2 expressed in Escherichia coli M15 using Z-Phe-Arg-AMC as substrate at 10 uM measured after 30 mins by microplate reader analysis relative to control
[8] = Toxicity in mouse assessed as latency to fall off the rotating rod by measuring neuromuscular coordination index at 100 mg/kg by rotarod apparatus (reference value: 12.45 +/- 1.48 ); format: organism-based; conditions: in vivo
[9] = Toxicity in mouse assessed as cell death in liver at 100 to 200 mg/kg measured after 7 days by hematoxylin and eosin staining based analysis; format: organism-based; conditions: in vivo, 168 h, dose 100-200 mg/kg, time 7 day
[10] = Cytotoxicity against CHO cells assessed as reduction in cell viability by MTT assay; format: toxicity, cell-based; conditions: Chinese hamster (Cricetulus griseus)
Falcipain 2 [11] = biological target: T2, Falcipain 2 (Plasmodium falciparum, UniProt Q9N6S8); test: Competitive inhibition of N-terminal 6His-tagged recombinant Plasmodium falciparum FP2 expressed in Escherichia coli M15 assessed as inhibition constant using Z-Phe-Arg-AMC as substrate measured after 30 mins by microplate reader analysis
T2 sequence (Q9N6S8 whole entry): T1 sequence (whole entry)

[12] = Toxicity in mouse assessed as cell death in kidney at 100 to 200 mg/kg measured after 7 days by hematoxylin and eosin staining based analysis; format: organism-based; conditions: in vivo, 168 h, dose 100-200 mg/kg, time 7 day
Plasmodium berghei [13] = test: Antimalarial activity against Plasmodium berghei ANKA infected in female BALB/c mouse assessed as survival at 50 to 100 mg/kg, ip; format: functional; conditions: dose 50-100 mg/kg
[14] = Toxicity in mouse assessed as grooming time at 200 mg/kg by open field test (reference value: 10.91 +/- 2.01 sec); format: organism-based; conditions: in vivo, 2 s
Falcipain-3 [15] = biological target: T3, Falcipain-3 (Plasmodium falciparum 3D7, UniProt Q8IIL0); test: Binding affinity to N-terminal 6His-tagged recombinant Plasmodium falciparum FP3 expressed in Escherichia coli M15 assessed as dissociation constant incubated for 15 mins in presence of lysine reactive dye by microscale thermophoretic analysis
T3 sequence (Q8IIL0 whole entry): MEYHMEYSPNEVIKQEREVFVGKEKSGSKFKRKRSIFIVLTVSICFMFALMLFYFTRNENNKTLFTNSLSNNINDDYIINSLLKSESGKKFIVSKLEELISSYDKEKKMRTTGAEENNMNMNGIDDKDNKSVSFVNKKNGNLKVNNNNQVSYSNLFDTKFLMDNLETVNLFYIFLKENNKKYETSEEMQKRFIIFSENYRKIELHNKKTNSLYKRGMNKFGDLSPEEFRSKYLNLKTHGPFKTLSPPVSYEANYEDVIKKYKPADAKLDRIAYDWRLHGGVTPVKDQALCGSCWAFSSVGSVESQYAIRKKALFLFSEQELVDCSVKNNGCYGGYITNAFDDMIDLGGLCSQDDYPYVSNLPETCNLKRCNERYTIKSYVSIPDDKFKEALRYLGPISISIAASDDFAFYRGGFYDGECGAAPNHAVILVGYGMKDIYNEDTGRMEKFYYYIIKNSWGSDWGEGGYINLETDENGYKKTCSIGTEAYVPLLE

[16] = Toxicity in mouse assessed as total distance travelled at 100 mg/kg measured over 5 mins by open field arena test (reference value: 12.45 +/- 1.48 meter); format: organism-based; conditions: in vivo
[17] = Toxicity in mouse assessed as effect on food intake at 100 to 200 mg/kg measured for 7 days; format: organism-based; conditions: in vivo, 168 h, dose 100-200 mg/kg, time 7 day
[18] = biological target: T4, Falcipain-3 (Plasmodium falciparum 3D7) (UniProt Q8IIL0); test: Inhibition of N-terminal 6His-tagged recombinant Plasmodium falciparum FP3 expressed in Escherichia coli M15 using Z-Phe-Arg-AMC as substrate at 10 uM measured after 30 mins by microplate reader analysis relative to control
T4 sequence (whole entry): T3 sequence (Q8IIL0 whole entry)

Plasmodium falciparum [19] = test: Antimalarial activity against trophozoite stage chloroquine-sensitive Plasmodium falciparum 3D7 assessed as growth inhibition incubated with compound for 6 hrs and measured 72 hrs post invasion by SYBR Green dye based analysis; format: functional, organism-based
Falcipain-3 [20] = biological target: T3, Falcipain-3; test: Binding affinity to N-terminal 6His-tagged recombinant Plasmodium falciparum FP3 expressed in Escherichia coli M15 assessed as dissociation constant by surface plasmon resonance analysis
[21] = Toxicity in mouse assessed as frequency of rearing activity at 100 mg/kg measured over 5 mins by open field arena test (reference value: 18.14 +/- 2.6 sec); format: organism-based; conditions: in vivo
Plasmodium falciparum [22] = test: Antimalarial activity against synchronized ring stage Plasmodium falciparum assessed as increase in undigested hemoglobin level at 1 to 4 uM incubated for 20 hrs by absorbance based analysis; format: functional, organism-based; conditions: dose 1-4 µM
Falcipain 2 [23] = biological target: T2, Falcipain 2; test: Binding affinity to N-terminal 6His-tagged recombinant Plasmodium falciparum FP2 expressed in Escherichia coli M15 assessed as dissociation constant incubated for 15 mins in presence of lysine reactive dye by microscale thermophoretic analysis
[24] = Metabolic stability in mouse liver S9 fraction assessed as intrinsic clearance at 2 uM measured for 90 mins by LC-MS/MS analysis; format: ADME, subcellular; conditions: read-out: CLH

O=C(Cn1cc(CN2CCN(c3ccnc4cc(Cl)ccc34)CC2)nn1)Nc1cccc([N+](=O)[O-])c1
Activity [1]: Non-Toxic | Activity [2]: Non-Toxic | inhibition [3]: 27.3% | Activity (Plasmodium berghei [4]): >7% | Ratio IC50 (Plasmodium falciparum [5]): 1.95 | Activity (Plasmodium falciparum [6]): Active | inhibition [7]: 54.3% | Activity_index [8]: 11.53 | Activity [9]: Non-Toxic | IC50 [10]: 148 µM | Ki (Falcipain 2 [11]): 0.527 µM | Activity [12]: Non-Toxic | Survival (Plasmodium berghei [13]): <=30 day | Time [14]: 14.31 s | Kd (Falcipain-3 [15]): 54.4 µM | Activity [16]: 11.53 m | Activity [17]: Non-Toxic | inhibition [18]: 28.5% | IC50 (Plasmodium falciparum [19]): 1.96 µM | Kd (Falcipain-3 [20]): 74 µM | Activity [21]: 14.17 s | Activity (Plasmodium falciparum [22]): Active | Kd (Falcipain 2 [23]): 2.99 µM | microsomal CLint at 2 µM [24]: 7.78 µL/min/mg
